Experimental data: patent US10001469B2, “Use of GPR83 to identify pruritus-related substances” (University of Miyazaki, priority 2010, dated 2018)
Entries after “also recorded” stand apart in the source; their conditions may differ. No end group written: not given here.

Tests used:
[1] = tested on: pain-related behavior; conditions: cited from earlier work; for suppression of pain-related behavior resulting from SP: Non-patent Documents 1, 2 and 3
[2] = tested on: intrathecally catheterized rats; assay: Scratching behavior after intrathecal administration of the peptide alone; type: in vivo, rat; conditions: 10^−3 M (10 nmol/10 μl) intrathecal
Procedure: 10^−3 M (10 nmol/10 μl) HK-1 and SP, the N-terminal regions (nHK-1 and nSP), and the C-terminal regions (cHK-1 and cSP) were administered to intrathecally catheterized rats via catheters. Ethological changes beginning immediately after administration were evaluated using the number of scratching events during a 5-minute period after each peptide administration as an indicator. Here, the expression “10^−3 M (10 nmol/10 μl) . . . administered” refers to administration of 10 μl (full dose) of a solution containing 10 nmol of a peptide (e.g., nHK-1) (that is, a 10^−3 M solution). The same applies to the following similar expressions. […] In these graphs, the number of scratching events induced by administration of 10^−3 M (10 nmol/10 μl) SP or HK-1 alone is designated as a control, and is specifically designated as 100%.

Row | Substance | suppression of pain-related behavior resulting from SP [1] | scratching behavior on administration of the peptide alone (number of scratching events during a 5-minute period) [2] | also measured
1 | Arg-Pro-Lys-Pro-Gln-Gln-Phe-NH2 (RPKPQQF-NH2) [SP(1-7)] | can be suppressed; also recorded: suppress pain-related behavior resulting from SP |  | 
2 | Arg-Pro-Lys-Pro-Gln-Gln-Phe-Phe-NH2 (RPKPQQFF-NH2) [SP(1-8)] | suppress pain-related behavior resulting from SP |  | 
3 | Gln-Phe-Phe-Gly-Leu-Met-NH2 (QFFGLM-NH2) [cSP] |  | resulted in scratching behavior | 
4 | Gln-Phe-Tyr-Gly-Leu-Met-NH2 (QFYGLM-NH2) [cHK-1] |  | resulted in scratching behavior | 
5 | Phe-Phe-Gly-Leu-Met-NH2 (FFGLM-NH2) [SP(7-11)] |  |  | induction of pain-related behavior (e.g., scratching behavior) ([1]; administered to a rat or a mouse, Non-patent Document 1): pain-related behavior is induced
